Results reported in patent US20100003217A1, “Compounds and Pharmaceutical Compositions for the Treatment of Viral Infections” (priority 2008, published 2010).
Several values for one entry are separate records, joined by “and”; a condition that tells them apart may be missing. Identical values can stand only once.

Tested on: rat primary hepatocytes
Experiment: Metabolic disposition of [^14C]-Compound 1 and [^14C]-2′-C-methyl guanosine in rat primary hepatocytes (incubation medium, cellular extracts, nucleotide levels)
Type: in vitro ADME, Sprague Dawley rat
Outline: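 Radio-HPLC and liquid scintillation counting quantified metabolites in incubation medium and in 70% methanol cell extracts. Samples came from cultured rat, monkey or human primary hepatocytes exposed at 37° C to 1 or 10 μM [^14C]-compound or [^14C]-2′-C-methyl guanosine, sampled at 1–24 hours. Phosphates were confirmed by phosphatase digestion to the nucleoside.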

[1] = rat hepatocytes (Rs458), 1 μM [^14C]-Compound 1, 0 h
[2] = rat hepatocytes (Rs458), 1 μM [^14C]-Compound 1, 1 h
[3] = rat hepatocytes (Rs458), 1 μM [^14C]-Compound 1, 8 h
[4] = rat hepatocytes (Rs458), 1 μM [^14C]-Compound 1, 24 h
[5] = rat hepatocytes Rs448, 10 μM [^14C]-2′-C-methyl guanosine, 1 h
[6] = rat hepatocytes Rs448, 10 μM [^14C]-2′-C-methyl guanosine, 4 h
[7] = rat hepatocytes Rs448, 10 μM [^14C]-2′-C-methyl guanosine, 8 h
[8] = rat hepatocytes Rs448, 10 μM [^14C]-2′-C-methyl guanosine, 24 h
[9] = rat hepatocytes Rs458, 1 μM [^14C]-2′-C-methyl guanosine, 1 h
[10] = rat hepatocytes Rs458, 1 μM [^14C]-2′-C-methyl guanosine, 8 h
[11] = rat hepatocytes Rs458, 1 μM [^14C]-2′-C-methyl guanosine, 24 h
[12] = rat hepatocytes Rs458, 10 μM [^14C]-2′-C-methyl guanosine, 1 h
[13] = rat hepatocytes Rs458, 10 μM [^14C]-2′-C-methyl guanosine, 4 h
[14] = rat hepatocytes Rs458, 10 μM [^14C]-2′-C-methyl guanosine, 8 h
[15] = rat hepatocytes Rs458, 10 μM [^14C]-2′-C-methyl guanosine, 24 h

C[C@@]1(O)[C@H](O)[C@@H](COP(=O)(O)O)O[C@H]1n1cnc2c(=O)[nH]c(N)nc21 [Compound 5, [(2R)-2-methyl-β-D-ribofuranosyl]guanine 5′-monophosphate]
metabolites observed in cellular extracts (% of total radioactivity) (rat hepatocytes (Rs448, Rs458), 10 μM [^14C]-Compound 1, 1 h, listed as Compd 5): 4.37% and 2.65%
metabolites observed in cellular extracts (% of total radioactivity) (rat hepatocytes (Rs448, Rs458), 10 μM [^14C]-Compound 1, 4 h, listed as Compd 5): 4.02% and 4.53%
metabolites observed in cellular extracts (% of total radioactivity) (rat hepatocytes (Rs448, Rs458), 10 μM [^14C]-Compound 1, 8 h, listed as Compd 5): 3.23% and 3.84%
2′-C-methyl guanosine nucleotide levels in cellular extracts [1]: BLD (BLD = below limit of detection (0.02 pmol/million cells))
metabolites observed in medium (% of total radioactivity) [1]: BLD
2′-C-methyl guanosine nucleotide levels in cellular extracts [2]: 6.00 pmol/million cells
metabolites observed in cellular extracts (% of total radioactivity) [2]: 3.74%
metabolites observed in medium (% of total radioactivity) [2]: BLD
2′-C-methyl guanosine nucleotide levels in cellular extracts [3]: 11.0 pmol/million cells
metabolites observed in cellular extracts (% of total radioactivity) [3]: 3.51%
metabolites observed in medium (% of total radioactivity) [3]: 6.41%
2′-C-methyl guanosine nucleotide levels in cellular extracts [4]: 11.0 pmol/million cells
metabolites observed in cellular extracts (% of total radioactivity) [4]: 6.68%
metabolites observed in medium (% of total radioactivity) [4]: no Compound 5 was detected and BLD
metabolites observed in medium (% of total radioactivity) (rat hepatocytes (lots Rs448, Rs458), 10 μM [^14C]-Compound 1, 0 h): BLD
metabolites observed in medium (% of total radioactivity) (rat hepatocytes (lots Rs448, Rs458), 10 μM [^14C]-Compound 1, 4 h): 5.3% and 3.6%
metabolites observed in medium (% of total radioactivity) (rat hepatocytes (lots Rs448, Rs458), 10 μM [^14C]-Compound 1, 8 h): 6.1% and 3.3%
metabolites observed in medium (% of total radioactivity) (rat hepatocytes (lots Rs448, Rs458), 10 μM [^14C]-Compound 1, 24 h): 2.9% and 2.6%
2′-C-methyl guanosine nucleotide levels in cellular extracts (rat hepatocytes Rs448, 10 μM [^14C]-2′-C-methyl guanosine, 0 h): 0 pmol/million cells
2′-C-methyl guanosine nucleotide levels in cellular extracts [5]: BLD^a (BLD = below limit of detection (0.02 pmol/million cells))
Major metabolites observed in cellular extracts (% of total radioactivity) [5]: BLD^a (BLD = below limit of detection (30 DPM))
2′-C-methyl guanosine nucleotide levels in cellular extracts [6]: BLD (BLD = below limit of detection (0.02 pmol/million cells))
Major metabolites observed in cellular extracts (% of total radioactivity) [6]: BLD (BLD = below limit of detection (30 DPM))
2′-C-methyl guanosine nucleotide levels in cellular extracts [7]: BLD (BLD = below limit of detection (0.02 pmol/million cells))
Major metabolites observed in cellular extracts (% of total radioactivity) [7]: BLD (BLD = below limit of detection (30 DPM))
2′-C-methyl guanosine nucleotide levels in cellular extracts [8]: 25.0 pmol/million cells
Major metabolites observed in cellular extracts (% of total radioactivity) [8]: 2.56 % of total radioactivity
2′-C-methyl guanosine nucleotide levels in cellular extracts (rat hepatocytes Rs448, 10 μM [^14C]-Compound 1, 0 h): 0 pmol/million cells
2′-C-methyl guanosine nucleotide levels in cellular extracts (rat hepatocytes Rs448, 10 μM [^14C]-Compound 1, 1 h): 43.0 pmol/million cells
2′-C-methyl guanosine nucleotide levels in cellular extracts (rat hepatocytes Rs448, 10 μM [^14C]-Compound 1, 4 h): 81.0 pmol/million cells
2′-C-methyl guanosine nucleotide levels in cellular extracts (rat hepatocytes Rs448, 10 μM [^14C]-Compound 1, 8 h): 79.0 pmol/million cells
2′-C-methyl guanosine nucleotide levels in cellular extracts (rat hepatocytes Rs448, 10 μM [^14C]-Compound 1, 24 h): 39.0 pmol/million cells
2′-C-methyl guanosine nucleotide levels in cellular extracts (rat hepatocytes Rs458, 1 μM [^14C]-2′-C-methyl guanosine, 0 h): BLD (BLD = below limit of detection (0.02 pmol/million cells))
2′-C-methyl guanosine nucleotide levels in cellular extracts [9]: BLD (BLD = below limit of detection (0.02 pmol/million cells))
Major metabolites observed in cellular extracts (% of total radioactivity) [9]: BLD^a (BLD = below limit of detection (30 DPM))
2′-C-methyl guanosine nucleotide levels in cellular extracts [10]: BLD (BLD = below limit of detection (0.02 pmol/million cells))
Major metabolites observed in cellular extracts (% of total radioactivity) [10]: BLD (BLD = below limit of detection (30 DPM))
2′-C-methyl guanosine nucleotide levels in cellular extracts [11]: 5.40 pmol/million cells
Major metabolites observed in cellular extracts (% of total radioactivity) [11]: 6.83 % of total radioactivity
2′-C-methyl guanosine nucleotide levels in cellular extracts (rat hepatocytes Rs458, 10 μM [^14C]-2′-C-methyl guanosine, 0 h): 0 pmol/million cells
2′-C-methyl guanosine nucleotide levels in cellular extracts [12]: BLD (BLD = below limit of detection (0.02 pmol/million cells))
Major metabolites observed in cellular extracts (% of total radioactivity) [12]: BLD^a (BLD = below limit of detection (30 DPM))
2′-C-methyl guanosine nucleotide levels in cellular extracts [13]: BLD (BLD = below limit of detection (0.02 pmol/million cells))
Major metabolites observed in cellular extracts (% of total radioactivity) [13]: BLD (BLD = below limit of detection (30 DPM))
2′-C-methyl guanosine nucleotide levels in cellular extracts [14]: BLD (BLD = below limit of detection (0.02 pmol/million cells))
Major metabolites observed in cellular extracts (% of total radioactivity) [14]: BLD (BLD = below limit of detection (30 DPM))
2′-C-methyl guanosine nucleotide levels in cellular extracts [15]: 88.0 pmol/million cells
Major metabolites observed in cellular extracts (% of total radioactivity) [15]: 9.39 % of total radioactivity
2′-C-methyl guanosine nucleotide levels in cellular extracts (rat hepatocytes Rs458, 10 μM [^14C]-Compound 1, 0 h): 0 pmol/million cells
2′-C-methyl guanosine nucleotide levels in cellular extracts (rat hepatocytes Rs458, 10 μM [^14C]-Compound 1, 1 h): 28.0 pmol/million cells
2′-C-methyl guanosine nucleotide levels in cellular extracts (rat hepatocytes Rs458, 10 μM [^14C]-Compound 1, 4 h): 88.0 pmol/million cells
